According to patent US11903907B2, “Soluble honokiol derivatives” (TAIPEI MEDICAL UNIVERSITY, priority 2017, dated 2024):

Legend:
[1] = Plasma concentration of honokiol and pharmacokinetics after intravenous injection in rats; conditions: rat plasma, i.v.
Experimental: Mean plasma concentrations of honokiol vs. time profile in five rats were measured after intravenous injection of HP-TMU or honokiol.
The plasma concentrations of honokiol at different points are expressed as mean±SD, and the mean concentration-time curve is shown in FIG. 4A.

[2] = tested on: mouse tail transection model (hemostasis); experiment: Bleeding time, mouse tail transection model; format: in vivo, mice; conditions: 0.5 and 1 mg/kg i.v.; measured 10 min after administration
Experimental: (§1) Coronal sections of 2,3,5-triphenyltetrazolium chloride (TTC)-stained brains were taken after middle cerebral artery occlusion (MCAO) in the vehicle group treated with an isovolumetric solvent (normal saline, intravenous [i.v.]), and groups treated with HP-TMU (0.25, 0.5 and 1 mg/kg, i.v.) or honokiol (0.129, 0.258 and 0.516 mg/kg, i.v.; the doses of honokiol were adjusted by the ratio of the molecular weight of honokiol to HP-TMU (266.33/514.22)) after 30 min-embolic occlusion. The densitometric analyses for the measurement of infarct volume and brain edema were performed after treatment with HP-TMU or honokiol against embolic stroke in mice. Bleeding time was measured 10 min after the i.v. administration of normal saline (isovolumetric control) or HP-TMU (0.5 and 1 mg/kg, i.v.) for 30 min.
(§2) In addition, MCAO-induced cerebral edema in the ischemic hemisphere was reduced by the treatment of 1 mg/kg HP-TMU (FIG. 1C). […] On the other hand, increased risk of hemorrhage is a major side effect of anti-stroke treatments. To evaluate HP-TMU in this aspect, we used the mouse tail transection model as an index of hemostasis.

[3] = tested on: middle cerebral artery occlusion (MCAO); experiment: Neurobehavioral functions after MCAO: neurological severity scoring and rotarod test; format: in vivo, mice; conditions: 0.5 and 1 mg/kg i.v., 24 and 48 h after MCAO, P<0.05
Experimental: Mice were subjected to middle cerebral artery occlusion (MCAO) surgery for 30 min, and then treated with the isovolumetric vehicle control (normal saline, intravenous [i.v.]) or HP-TMU (0.25, 0.5 and 1 mg/kg, i.v.) or honokiol (0.129, 0.258 and 0.516 mg/kg, i.v.). Assays of neurobehavioral functions include neurological severity scoring and the rotarod test. Evaluations were performed before and 24 and 48 h after surgery.

[4] = tested on: middle cerebral artery occlusion (MCAO) embolic stroke; experiment: MCAO embolic stroke in mice: infarct volume and brain edema from TTC-stained brain sections; format: in vivo
Experimental: as §1, §2

[5] = tested on: middle cerebral artery occlusion (MCAO); experiment: Long-term recovery after MCAO by neurological severity scoring, comparison with edaravone; format: in vivo, mice; conditions: 1 mg/kg i.v.; at 1, 2, and 7 days after surgery
Experimental: Mice were subjected to middle cerebral artery occlusion (MCAO) surgery for 30 min, and then treated with the isovolumetric vehicle control (normal saline, intravenous [i.v.]) or HP-TMU (1 mg/kg, i.v.) or edaravone (3 mg/kg, i.v.). The therapeutic effects of HP-TMU on long-term recovery were evaluated by neurological severity scoring before or 1, 2, 7, 14, and 28 days after surgery.

C=CCc1ccc(OP(=O)(O)O)c(-c2ccc(OP(=O)([O-])[O-])c(CC=C)c2)c1.[Na+].[Na+] [HP-TMU, sodium 3′,5-diallyl-[1,1′-biphenyl]-2,4′-diyl bis(phosphate)]
half-life compared to honokiol [1]: prolonged half-life compared to honokiol | bleeding time [2]: did not alter the bleeding time substantially | neurobehavioral (neurological) deficit scores, 18-point scale [3]: significantly ameliorated these increased scores | decrease of rotarod duration ([3]; vs vehicle control): significant reversed | MCAO-induced cerebral edema in the ischemic hemisphere ([4]; 1 mg/kg i.v.): reduced | infarct volume ([4]; 0.5 and 1 mg/kg i.v. after 30 min-embolic occlusion, compared with solvent control group, P<0.05): significantly reduced the infarct volume | neuroprotective effects compared with honokiol ([4]; HP-TMU 0.25, 0.5, 1 mg/kg i.v. vs honokiol 0.129, 0.258, 0.516 mg/kg i.v.): more potent neuroprotective effects than honokiol | long-term recovery of neurological deficit [5]: significantly improved
